Key:
KDR = target: T1, KDR (Homo sapiens, UniProt P35968); assay: LabChip (Caliper) kinase assay, KDR; format: biochemical; details: for inhibition at 0.01 µM: compound at 10 nM; for inhibition at 0.01 µM / inhibition at 0.1 µM: read-out: remaining kinase activity (in %) / percentage of inhibition; for inhibition at 0.1 µM: compound at 100 nM; for IC50: ATP at Km, read-out: CI50 (the source's name)
T1 construct: purchased Carna Biosciences
Description: The analysis of kinase activity described here was performed using LabChip (Caliper Life Sciences), specifically the Caliper LC3000 and the EZ Reader II instruments.
The kinase assay used measures the conversion of a fluorescent peptide (substrate) to a phosphorylated product. The reaction mixture, in a microplate well, is introduced by a capillary in a chip where the non-phosphorylated substrate and the phosphorylated product are separated by […]. The intensity of the fluorescent signal over time is related to the reaction progress. The phosphorylated product migrates quicker than the non-phosphorylated substrate and the signals of the two forms of the peptide appear as differentiated peaks. The Caliper determines the peak height and calculates the ratio of product to the peak sum (P/(P+S)). This value is used to compare wells with compounds and wells with controls and thus determine the % of inhibition for the given product.
The followings kinases were used for the enzymatic inhibition studies, between brackets the value of the Michaelis-Menten constant, Km, of the ATP (Adenosine triphosphate) for each kinase, in μM: obtained from Carna Biosciences: MAPKAPK2 (4.6), AurA (3.6), AurB (5), PKCζ (3.8), RSK1 (23.3), PRAK (5), Erk1 (33.4), PKD2 (32.1), CK1d (16.3), CHK1 (33), ABL (61.7), FYN (36), LYNa (17), CHK2 (57.8), MET (79.5), LCK (28.5), SRC (38), GSK3β (7.3), Erk2 (62.1), PKACα (1.7), AKT2 (186.1), INSR (871.8), p38a (396.5), AKT1(48), MSK1 (21.2), PKCβ2 (84.8), ROCK2 (3.3), PIM2 (4.9), AMPK (38.6), KDR (164.8), IRAK4 (196.5), SGK1 (121.8), SYK (33.5); obtained from Invitrogen: CDK2 (57.6), BTK (123), HGK (80); obtained from Upstate: MST2 (36.6), PKGα (16), PAK2 (1.9), IGF1R (320), FGFR1 (171), MARK1 (33), CAMK2δ (22.4), c-TAK1 (66), DYRK1a (18.1), CaMK4 (3.9), FLT3 (350), c-Raf (6.2), P70S6K (95).
The compounds were dissolved in 100% DMSO and were diluted at 25 times the final concentration desired for the assay. In the case of the determination of Cl50, serial dilutions were made to reach eight concentrations and give rise to the inhibition curve. 1 μL of each concentration is transferred, in duplicate to a 384-well microplate. 12 μL of enzymatic buffer is added to each well containing purified kinase (several suppliers as indicated above), 100 mM HEPES, pH 7.5, 1 mM DTT (Calbiochem), 0.002% Brij-35 (Sigma) and also in presence of 10 mM MgCl2 as cofactor, except for INSR and IRAK4 wherein 10 mM MnCl2 is used instead of MgCl2. For the kinases CAMK26 and CAMK4, 1 mM CaCl2 and 6.7 μg/mL of calmodulin are also added. For KDR kinase, 0.05% of the CHAPSO detergent is added. For the c-Raf kinase, 10 mM MnCl2 is added. For PKCβ2 0.02 μg/mL of PS/PMA is added. For PKGα se 10 μM of cGMP (cyclic guanosine monophosphate) is added. The compound and the enzyme are left for 15 minutes preincubation and, then, the following are added to each well: 12 μL of peptide buffer/ATP containing 100 mM HEPES, pH 7.5, 1.5 μM peptide marker with fluorescein (specific for the corresponding kinase), ATP (at concentration KM), and 0.002% Brij-35 to start the reaction. Generally, the reactions are incubated for 1-1.5 h at ambient temperature to obtain an adequate conversion (15-40%) of the peptide to the phosphorylated product. The reactions were ended by the addition of 45 μL of buffer containing 0 mM EDTA. The microplates were read by the LabChip 3000 using a 12-channel LabChip. The P/(P+S) values were obtained as described above and the CI50 curves were generated using XIfit.
Table 9a has the 0150 data obtained in pairs of compound-kinase selected from the compounds of formula (VII), (VIII), (IX), (XVI), (XVII) and (XVIII) after taking inhibition measurements at 100 nM and 10 nM. Those couples that provide >70% of inhibition at 10 nM were consider for measuring its IC50. […]

HT29 (colon) = assay: SRB anti-tumour (growth inhibition) assay, HT29; format: cell-based; details: Homo sapiens, HT-29, 48 h exposure, read-out: GI50 (concentration inhibiting 50% of cell growth)
Description: The compounds generated were tested against a series of cell lines from tumours. It quantitatively determined the cell growth and the viability, using a colorimetric assay type, using the reaction with sulforhodamine B (SRB), according to the technique described by Faircloth et al. (Journal of Tissue and Culture Methods 1988, 11, 201-205).
96-well microtitre plates are inoculated with cells (5×10^3 cells per well) in aliquots of 195 μl of medium, incubating them during 18 h, in a medium without added compound, to allow the cells to adhere to the surface. Next, the compounds to be tested are added, in samples of 5 μl, at a range of concentrations of 10 to 10^−8 μg/ml, dissolved in DMSO/EtOH (0.2% in PS buffer). After 48 h exposure, the anti-tumour effect is measured using the Sulforhodamine B (SRB) technique: the cells are fixed adding 50 μl of cold […] (50%) (w/v) and it is incubated for 60 min. at 4° C. The plates are washed with deionized water and dried. 100 μl of SRB solution (0.4% w/v in 1% acetic acid) to each well and it is incubated during 10 min. at ambient temperature. The non-bound SRB is eliminated, washing with 1% acetic acid. The plates are air dried and the bound colorant is dissolved with Tris buffer. The optical densities are read in an automatic plate spectrophotometer reader at a wavelength of 490 nm.
For the compounds of formula (III), (IV), (V), (VI), (VII), (VIII), (IX) and the compounds of formula (XII), (XIII), (XIV), (XV), (XVI) and (XVIII).

T1 sequence (P35968 20-1356): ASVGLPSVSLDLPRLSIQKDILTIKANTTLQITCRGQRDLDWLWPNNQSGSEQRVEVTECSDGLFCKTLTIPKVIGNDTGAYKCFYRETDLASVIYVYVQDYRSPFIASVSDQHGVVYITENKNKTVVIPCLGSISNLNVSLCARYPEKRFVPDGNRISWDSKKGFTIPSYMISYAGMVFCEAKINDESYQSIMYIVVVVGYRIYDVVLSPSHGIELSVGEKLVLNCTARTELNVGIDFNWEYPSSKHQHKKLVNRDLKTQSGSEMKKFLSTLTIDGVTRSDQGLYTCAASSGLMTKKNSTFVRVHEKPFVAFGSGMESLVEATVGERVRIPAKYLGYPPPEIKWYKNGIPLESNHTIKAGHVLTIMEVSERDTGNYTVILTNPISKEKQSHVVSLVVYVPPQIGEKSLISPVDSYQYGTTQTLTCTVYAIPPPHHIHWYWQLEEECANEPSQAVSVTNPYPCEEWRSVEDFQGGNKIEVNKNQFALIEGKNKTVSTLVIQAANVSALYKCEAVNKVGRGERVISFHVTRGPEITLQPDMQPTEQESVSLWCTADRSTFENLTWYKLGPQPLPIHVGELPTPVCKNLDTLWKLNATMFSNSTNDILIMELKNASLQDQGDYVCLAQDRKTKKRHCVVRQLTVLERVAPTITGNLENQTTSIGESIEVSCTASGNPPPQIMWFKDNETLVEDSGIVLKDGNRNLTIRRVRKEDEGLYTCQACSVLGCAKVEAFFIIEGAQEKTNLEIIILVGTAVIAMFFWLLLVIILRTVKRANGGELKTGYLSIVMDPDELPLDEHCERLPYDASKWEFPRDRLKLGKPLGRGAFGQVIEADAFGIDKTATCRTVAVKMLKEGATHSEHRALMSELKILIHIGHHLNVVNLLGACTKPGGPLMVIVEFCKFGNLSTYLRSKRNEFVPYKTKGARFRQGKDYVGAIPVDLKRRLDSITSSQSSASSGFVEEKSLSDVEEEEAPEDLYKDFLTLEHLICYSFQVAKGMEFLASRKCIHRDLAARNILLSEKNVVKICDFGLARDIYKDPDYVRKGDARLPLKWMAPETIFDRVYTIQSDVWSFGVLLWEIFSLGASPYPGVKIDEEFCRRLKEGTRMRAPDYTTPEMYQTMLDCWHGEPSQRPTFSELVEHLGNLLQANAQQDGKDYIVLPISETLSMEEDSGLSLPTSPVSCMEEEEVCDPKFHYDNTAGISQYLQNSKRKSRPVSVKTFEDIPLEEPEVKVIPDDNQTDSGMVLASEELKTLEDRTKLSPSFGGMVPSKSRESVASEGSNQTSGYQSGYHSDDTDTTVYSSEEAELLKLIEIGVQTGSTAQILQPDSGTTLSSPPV

SMILES	inhibition at 0.01 µM (KDR)	inhibition at 0.1 µM (KDR)	GI50 (HT29 (colon))	IC50 (KDR)
C[C@@H]1O[C@@H](n2c3ccccc3c3c4c(c5c6ccccc6[nH]c5c32)C(=O)NC4=O)C[C@H](O)[C@H]1O [formula (IV), N^13-1′-β-L-olivosylarcyriaflavin]	21%	68%	8790 nM	–
C[C@]12O[C@H](C[C@H](O)[C@H]1O)n1c3ccccc3c3c4c(c5c6ccccc6n2c5c31)C(=O)NC4=O [formula (VIII), N^12-5′(S)-N^13-1′-(R)-L-olivosylarcyriaflavin]	–	–	11200 nM	0.55 nM
C[C@H]1O[C@@H](n2c3ccccc3c3c4c(c5c6ccccc6[nH]c5c32)CNC4=O)C[C@@H](O)[C@@H]1O [formula (XV), N^13-1′-β-D-olivosyl-k252c]	-4%	18%	3850 nM	–
C[C@]12O[C@H](C[C@@H](O)[C@H]1O)n1c3ccccc3c3c4c(c5c6ccccc6n2c5c31)CNC4=O [formula (XVIII), N^12-5′(S)-N^13-1′-(R)-L-digitoxosyl-k252c]	–	–	1520 nM	> 10 nM
C[C@]12O[C@H](C[C@H](O)[C@H]1O)n1c3ccccc3c3c4c(c5c6ccccc6n2c5c31)CNC4=O [formula (XVII), N^12-5′(S)-N^13-1′-(R)-L-olivosyl-k252c]	–	–	1210 nM	–
C[C@@H]1O[C@@H](n2c3ccccc3c3c4c(c5c6ccccc6[nH]c5c32)CNC4=O)[C@H](O)[C@H](O)[C@H]1O [formula (XII), N^13-1′-β-L-rhamnosyl-k252c]	-1%	6%	2100 nM	–
C[C@@H]1O[C@@H](n2c3ccccc3c3c4c(c5c6ccccc6[nH]c5c32)CNC4=O)C[C@@H](O)[C@H]1O [formula (XIV), N^13-1′-β-L-digitoxosyl-k252c]	1%	16%	3400 nM	–
C[C@]12O[C@H](C[C@@H](O)[C@H]1O)n1c3ccccc3c3c4c(c5c6ccccc6n2c5c31)C(=O)NC4=O [formula (IX), N^12-5′(S)-N^13-1′-(R)-L-digitoxosylarcyriaflavin]	–	–	8160 nM	> 10 nM
C[C@@H]1O[C@@H](n2c3ccccc3c3c4c(c5c6ccccc6[nH]c5c32)CNC4=O)C[C@H](O)[C@H]1O [formula (XIII), N^13-1′-β-L-olivosyl-k252c]	7%	48%	1520 nM	–
C[C@]12O[C@H]([C@H](O)[C@H](O)[C@H]1O)n1c3ccccc3c3c4c(c5c6ccccc6n2c5c31)C(=O)NC4=O [formula (VII), N^12-5′(S)-N^13-1′-(R)-L-rhamnosylarcyriaflavin]	–	–	2450 nM	3.7 nM
C[C@]12O[C@H]([C@H](O)[C@H](O)[C@H]1O)n1c3ccccc3c3c4c(c5c6ccccc6n2c5c31)CNC4=O [formula (XVI), N^12-5′(S)-N^13-1′-(R)-L-rhamnosyl-k252c]	–	–	870 nM	–
C[C@@H]1O[C@@H](n2c3ccccc3c3c4c(c5c6ccccc6[nH]c5c32)C(=O)NC4=O)C[C@@H](O)[C@H]1O [formula (V), N^13-1′-β-L-digitoxosylarcyriaflavin]	28%	63%	6390 nM	–
C[C@@H]1O[C@@H](n2c3ccccc3c3c4c(c5c6ccccc6[nH]c5c32)C(=O)NC4=O)[C@H](O)[C@H](O)[C@H]1O [formula (III), N^13-1′-β-L-rhamnosylarcyriaflavin]	-7%	21%	2420 nM	–
C[C@H]1O[C@@H](n2c3ccccc3c3c4c(c5c6ccccc6[nH]c5c32)C(=O)NC4=O)C[C@@H](O)[C@@H]1O [formula (VI), N^13-1′-β-D-olivosylarcyriaflavin]	2%	40%	2160 nM	–

From patent publication US8598132B2, “Glycosylated indolocarbazoles, method for obtaining same and uses thereof” (Universidad de Oviedo, priority 2008, dated 2013)
